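1) Cells in 96-well plates. 2) Compound, 48 h, 5 concentrations. 3) Linear interpolation between surrounding doses. 4) Unreached endpoint = highest concentration. The concentration for full growth arrest is given as TGI.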
Legend:
Experiment in all cases: growth of human tumour cells (NCI), 48 h
[1] = test system: A549 NSCLC
[2] = test system: BT-549 breast
[3] = test system: HCC-2998 colon
[4] = test system: HOP-62 NSCLC
[5] = test system: IGROV1 ovarian
[6] = test system: K-562 leukemia
[7] = test system: M14 melanoma
[8] = test system: MALME-3M melanoma
[9] = test system: NCI-H226 lung
[10] = test system: NCI-H522 lung
[11] = test system: OVCAR-4 ovarian
[12] = test system: RXF 393 renal
[13] = test system: SK-MEL-2 melanoma
[14] = test system: SNB-19 CNS
[15] = test system: SNB-75 CNS
[16] = test system: SW-620 colon
[17] = test system: TK-10 renal
[18] = test system: U251 CNS
[19] = test system: UO-31 renal
[20] = test system: NCI-H23 lung

SMILES | TGI [1] [µM] | TGI [2] [µM] | TGI [3] [µM] | TGI [4] [µM] | TGI [5] [µM] | TGI [6] [µM] | TGI [7] [µM] | TGI [8] [µM] | TGI [9] [µM] | TGI [10] [µM] | TGI [11] [µM] | TGI [12] [µM] | TGI [13] [µM] | TGI [14] [µM] | TGI [15] [µM] | TGI [16] [µM] | TGI [17] [µM] | TGI [18] [µM] | TGI [19] [µM] | TGI [20] [µM]
Cc1cc(NS(=O)(=O)c2ccc(N=Nc3c(O)c(C(=O)O)cc4ccccc34)cc2)nc(C)n1 | > 100 | > 100 | > 100 | > 100 | > 100 | > 100 | > 100 | > 100 | > 100 | > 100 | > 100 | > 100 | > 100 | > 100 | > 100 | > 100 | > 100 | > 100 | > 100 | 
CC(C)CCN=c1cc2n(-c3ccc(Cl)cc3)c3ccccc3nc-2cc1Nc1ccc(Cl)cc1 | > 56.4 |  | 18.1 | 26.1 | 17.9 | 26.4 |  | 31 | 20.7 | 7.06 | 18.4 | 10.9 | 12.3 | > 100 | > 91.4 | > 70.3 |  | 26.5 | 18.9 | 12.1
CCOCNC(=O)N(COCC)COCC | > 100 |  | > 100 | > 100 | > 100 | > 100 | > 100 | > 100 | > 100 | > 100 |  |  | > 100 | > 100 | > 100 | > 100 |  |  | > 100 | 
CC(=O)[C@]1(O)Cc2c(O)c3c(c(O)c2C(OC2OC(C)C(O)C(O)C2F)C1)C(=O)c1ccccc1C3=O (stereo partly drawn) |  | 2.44 | 2.3 | 0.629 | 24.9 | 1.25 | 1.55 | 1.48 | 0.341 | 2.28 | 11.2 | 1.89 | 2.88 |  | 0.837 |  | 71.3 | 0.996 | 0.0279 | 0.303
COc1ccc2c(c1)CCCc1cn[nH]c1-2 | > 100 |  | > 100 | > 100 | > 100 | > 100 |  | > 100 | > 100 | > 100 | > 100 | > 100 | > 100 | > 100 | > 100 | > 100 |  | > 100 | > 100 | > 100
C[N+](C)(N)CCC[N+](C)(C)N | > 100 | > 100 |  | > 100 | > 100 | > 100 | > 100 | > 100 | > 100 | > 100 | > 100 | > 100 | > 100 | > 100 | > 100 | > 100 | > 100 | > 100 | > 100 | > 100
O=c1c2ccccc2nnn1-c1n[nH]c2ccccc12 | > 100 | > 100 | > 100 | > 100 | > 100 |  | > 100 | > 100 |  | > 100 | > 100 | > 100 | > 100 | > 100 | > 100 | > 100 | > 100 | > 100 | > 100 | > 100
CC[N+](C)(CC)Cc1ccccc1[N+](=O)[O-] | > 100 | > 100 |  | > 100 | > 100 | > 100 | > 100 | > 100 | > 100 | > 100 | > 100 | > 100 | > 100 |  | > 100 | > 100 | > 100 | > 100 | > 100 | > 100
CC[C@]12C=CCN3CC[C@@]4(c5ccc(OC)cc5N(C)[C@H]4[C@@](O)(C(=O)OC)[C@@H]1OC(C)=O)[C@@H]32 | > 200 |  | > 200 | > 200 | > 200 | > 200 |  | > 200 | > 200 | > 200 | > 63.2 | > 200 | > 200 | > 200 | > 200 | > 200 |  | > 200 | > 92.8 | > 200
COc1ccc(-c2c(C#N)c(NC(=S)NC(=O)c3ccccc3)nc3c2CCCC3)cc1OC | > 100 | > 100 |  | > 100 | > 100 | > 100 | > 100 | > 100 |  |  | > 100 | 68.1 |  | > 100 | > 100 | > 100 | > 100 | > 100 | > 100 | > 100
Cc1cc(C)cc(Nc2nnc3n2S(=O)(=O)c2cc(C#N)c(Cl)cc2S3)c1 | 32.9 | 5.98 |  | 9.25 | 1.68 | > 100 | 28.2 | 2.92 | 26.1 | 4.59 | 22.1 | 3.26 | 19.5 | 21.6 | 7.56 | 4.86 |  | 4.29 | 17 | 4.35
CC(=O)OC[C@H]1[C@@H]2C(CC[C@]13CO3)OC(=O)CC(C)[C@]2(C)CCc1ccoc1 (stereo partly drawn) | > 100 | > 100 | > 100 | > 100 | > 100 | > 100 | > 100 | > 100 | > 100 | > 100 | > 100 | > 100 |  | > 100 |  | > 100 | > 100 | > 100 | > 100 | > 100
CN(CCCNc1ccc2ncn3c4ccccc4c(=O)c1c23)CCCN1C(=O)c2cccc3cc([N+](=O)[O-])cc(c23)C1=O | 0.126 | 2.01 | 0.0916 | 2.15 | 1.48 | 0.398 | 1.69 |  | 1.55 | 1.48 | 2.75 | 2.14 | 6.88 | 2.28 | 1.81 |  | 0.156 | 0.133 | 2.26 | 1.5
O=C(NCCCNC(=O)c1ccc2cc(O)c(O)cc2c1)c1ccc2cc(O)c(O)cc2c1 | > 100 | > 100 | 50.9 | > 100 | > 100 | > 100 | > 100 | > 100 | 57.8 | > 100 | 45.4 | 99.7 | 34 | 56.5 | > 100 | > 100 | > 100 | > 100 | > 100 | 63.5
Oc1ccc2ccccc2c1N=Nc1ccc(F)cc1 | > 100 |  | > 100 | > 100 | > 100 | > 100 | > 100 | > 100 |  | > 100 | > 100 | > 100 | > 100 | > 100 | > 100 | > 100 | > 100 | > 100 | > 100 | > 100
NCCc1nc(-c2nc(C(=O)O)cs2)cs1 | > 100 | > 100 |  | > 100 | > 100 | > 100 | > 100 | > 100 |  | > 100 | > 100 | > 100 | > 100 | > 100 | > 100 | > 100 | > 100 | > 100 | > 100 | > 100
COC(=O)C1(c2ccc(N(C)C)cc2OC)CCCN(C(=O)Oc2ccccc2[N+](=O)[O-])CCc2c1[nH]c1ccccc21 (stereo not drawn) | > 100 | > 100 | > 100 | > 100 | > 100 | > 100 | > 100 | > 100 | > 100 | > 100 |  | > 100 | > 100 |  | > 100 | > 100 | > 100 | > 100 | > 100 | > 100
O=[N+]([O-])c1ccccc1N=Nc1c(O)sc2ccccc12 | > 100 |  | > 100 | > 100 | > 100 | > 100 | > 100 | > 100 | > 100 | > 100 | 98.4 |  | > 100 | > 100 | 79.5 | > 100 | > 100 | > 100 | > 100 | > 100

Reference: PubChem BioAssay (NCI)
